Experimental findings from ChEMBL document CHEMBL1139935, “Discovery of novel indazole-linked triazoles as antifungal agents” (2007) are described below.

One assay deals with Candida albicans. Briefly: Antifungal activity against Candida albicans ATCC 36082 by broth microdilution assay. It is filed as functional. For orientation: In broth dilution the organism is exposed to a series of concentrations in liquid medium.
For the next assay, the system named is Nakaseomyces glabratus. The assay can be described thus: Antifungal activity against Candida glabrata ATCC 34138 by broth microdilution assay. The class given is functional.
The subject of the next assay is Pichia kudriavzevii. Briefly: Antifungal activity against Candida krusei ATCC 6528 by broth microdilution assay. It is filed as functional.
For another assay, the system named is Clavispora lusitaniae. Briefly: Antifungal activity against Candida lusitaniae ATCC 42720 by broth microdilution assay. The class given is functional.
The next assay has as its system Candida tropicalis. Briefly: Antifungal activity against Candida tropicalis ATCC 750 by broth microdilution assay. It is filed as functional.
A further assay has as its system Candida parapsilosis. Briefly: Antifungal activity against Candida parapsilosis ATCC 21019 by broth microdilution assay. It is filed as functional. The settings on record: Lodderomyces parapsilosis.
In the next assay the test system is Aspergillus fumigatus. The assay can be described thus: Antifungal activity against Aspergillus fumigatus ATCC 16424 by broth microdilution assay. The class given is functional.
For a further assay, the system named is Aspergillus flavus. Briefly: Antifungal activity against Aspergillus flavus ATCC MYA-1004 by broth microdilution assay. The class given is functional.
The test system of another assay is Aspergillus terreus. Briefly: Antifungal activity against Aspergillus terreus ATCC 28301 by broth microdilution assay. The class given is functional.
For a further assay, the system named is Aspergillus niger. Briefly: Antifungal activity against Aspergillus niger ATCC 9042 by broth microdilution assay. It is filed as functional.
A further assay relates to Cryptococcus neoformans. Briefly: Antifungal activity against Cryptococcus neoformans ATCC 24065 by broth microdilution assay.

Converted amounts (≈) assume the structure as drawn.

By MIC80 is commonly meant an inhibitory concentration at the 80% level, which refers to growth in some studies and to a panel of isolates in others. Consider `Cc1nn([C@H](C)[C@](O)(Cn2cncn2)c2ccc(F)cc2F)c2ccc([N+](=O)[O-])cc12`, for which the MIC80 against Candida albicans worked out at 0.015 µg/mL (≈ 0.035 µM); in the assay with Nakaseomyces glabratus, 8 µg/mL (≈ 18.7 µM); with Pichia kudriavzevii, 4 µg/mL (≈ 9.34 µM); in the assay on Clavispora lusitaniae it was 0.063 µg/mL (≈ 0.147 µM); with Candida tropicalis it was 4 µg/mL (≈ 9.34 µM); in the assay with Candida parapsilosis, 0.125 µg/mL (≈ 0.292 µM). Moreover, the MIC80 against Aspergillus fumigatus was found to be 4 µg/mL (≈ 9.34 µM); in the assay with Aspergillus flavus, 16 µg/mL (≈ 37.3 µM); in the assay on Aspergillus terreus, 8 µg/mL (≈ 18.7 µM); with Aspergillus niger, 16 µg/mL (≈ 37.3 µM); in the assay on Cryptococcus neoformans, 0.25 µg/mL (≈ 0.584 µM).
Turning to `Cc1nn([C@H](C)[C@](O)(Cn2cncn2)c2ccc(F)cc2F)c2ccc(F)cc12`, the MIC80 in the assay with Candida albicans came out at 0.031 µg/mL (≈ 0.0772 µM); against Nakaseomyces glabratus, 8 µg/mL (≈ 19.9 µM); in the assay with Pichia kudriavzevii it was 4 µg/mL (≈ 9.97 µM); against Clavispora lusitaniae it was 0.125 µg/mL (≈ 0.311 µM); in the assay on Candida tropicalis it was 4 µg/mL (≈ 9.97 µM); against Candida parapsilosis, 0.5 µg/mL (≈ 1.25 µM). Moreover, the MIC80 amounted to 4 µg/mL (≈ 9.97 µM) against Aspergillus fumigatus; 8 µg/mL (≈ 19.9 µM) in the assay with Aspergillus flavus; 4 µg/mL (≈ 9.97 µM) with Aspergillus terreus; 16 µg/mL (≈ 39.9 µM) in the assay on Aspergillus niger; 0.5 µg/mL (≈ 1.25 µM) in the assay on Cryptococcus neoformans.
For the molecule `CCc1nn([C@H](C)[C@](O)(Cn2cncn2)c2ccc(F)cc2F)c2ccc(F)cc12`, the MIC80 is at most 0.015 µg/mL in the assay on Candida albicans; 4 µg/mL (≈ 9.63 µM) with Nakaseomyces glabratus; 2 µg/mL (≈ 4.81 µM) against Pichia kudriavzevii; 0.063 µg/mL (≈ 0.152 µM) in the assay with Clavispora lusitaniae; 2 µg/mL (≈ 4.81 µM) in the assay on Candida tropicalis; 0.125 µg/mL (≈ 0.301 µM) with Candida parapsilosis. The MIC80 against Aspergillus fumigatus is 16 µg/mL (≈ 38.5 µM); in the assay with Aspergillus flavus it was above 16 µg/mL; against Aspergillus terreus, above 16 µg/mL; in the assay with Aspergillus niger, above 16 µg/mL; in the assay with Cryptococcus neoformans, 0.125 µg/mL (≈ 0.301 µM).
In the case of `Cc1nn([C@H](C)[C@](O)(Cn2cncn2)c2ccc(F)cc2F)c2cc(F)ccc12`, the MIC80 against Candida albicans is 0.031 µg/mL (≈ 0.0772 µM); against Nakaseomyces glabratus, above 8 µg/mL; in the assay on Pichia kudriavzevii, 8 µg/mL (≈ 19.9 µM); against Clavispora lusitaniae, 0.25 µg/mL (≈ 0.623 µM); in the assay with Candida tropicalis, above 8 µg/mL; against Candida parapsilosis, 0.5 µg/mL (≈ 1.25 µM). Besides, the MIC80 in the assay with Aspergillus fumigatus was 16 µg/mL (≈ 39.9 µM); against Aspergillus flavus, above 16 µg/mL; with Aspergillus terreus, above 16 µg/mL; with Aspergillus niger it was above 16 µg/mL; in the assay with Cryptococcus neoformans it was 0.5 µg/mL (≈ 1.25 µM).
As to `C[C@@H](n1cnc2cc(Cl)ccc2c1=O)[C@](O)(Cn1cncn1)c1ccc(F)cc1F` [ALBACONAZOLE], the MIC80 was at most 0.015 µg/mL in the assay with Candida albicans; 8 µg/mL (≈ 18.5 µM) in the assay on Nakaseomyces glabratus; 0.25 µg/mL (≈ 0.579 µM) against Pichia kudriavzevii; at most 0.015 µg/mL against Clavispora lusitaniae; 0.031 µg/mL (≈ 0.0718 µM) in the assay with Candida tropicalis; at most 0.015 µg/mL against Candida parapsilosis. For the same molecule, the MIC80 against Aspergillus fumigatus was 0.5 µg/mL (≈ 1.16 µM); against Aspergillus flavus, 0.5 µg/mL (≈ 1.16 µM); with Aspergillus terreus, 1 µg/mL (≈ 2.32 µM); in the assay on Aspergillus niger, 2 µg/mL (≈ 4.63 µM); against Cryptococcus neoformans it was at most 0.015 µg/mL.
For the molecule `OC(Cn1cncn1)(Cn1cncn1)c1ccc(F)cc1F` [FLUCONAZOLE], the MIC80 is 2 µg/mL (≈ 6.53 µM) against Candida albicans; above 8 µg/mL in the assay on Nakaseomyces glabratus; above 8 µg/mL with Pichia kudriavzevii; 8 µg/mL (≈ 26.1 µM) with Clavispora lusitaniae; above 8 µg/mL in the assay with Candida tropicalis; above 8 µg/mL in the assay with Candida parapsilosis. Moreover, the MIC80 against Aspergillus fumigatus was above 128 µg/mL; with Aspergillus flavus, above 128 µg/mL; against Aspergillus terreus, above 128 µg/mL; with Aspergillus niger it was above 128 µg/mL; in the assay with Cryptococcus neoformans, 8 µg/mL (≈ 26.1 µM).
In the case of `C[C@@H](c1nc(-c2ccc(C#N)cc2)cs1)[C@](O)(Cn1cncn1)c1ccc(F)cc1F` [RAVUCONAZOLE], the MIC80 is at most 0.015 µg/mL in the assay on Candida albicans; 2 µg/mL (≈ 4.57 µM) against Nakaseomyces glabratus; 0.125 µg/mL (≈ 0.286 µM) with Pichia kudriavzevii; at most 0.015 µg/mL in the assay on Clavispora lusitaniae; at most 0.015 µg/mL in the assay on Candida tropicalis; at most 0.015 µg/mL with Candida parapsilosis. Besides, the MIC80 is 0.125 µg/mL (≈ 0.286 µM) in the assay on Aspergillus fumigatus; 0.5 µg/mL (≈ 1.14 µM) against Aspergillus flavus; 0.5 µg/mL (≈ 1.14 µM) with Aspergillus terreus; 1 µg/mL (≈ 2.29 µM) in the assay on Aspergillus niger; at most 0.015 µg/mL in the assay on Cryptococcus neoformans.
Regarding `C[C@@H](c1ncncc1F)[C@](O)(Cn1cncn1)c1ccc(F)cc1F` [VORICONAZOLE], the MIC80 against Candida albicans is at most 0.015 µg/mL; with Nakaseomyces glabratus it was 4 µg/mL (≈ 11.5 µM); against Pichia kudriavzevii it was 1 µg/mL (≈ 2.86 µM); against Clavispora lusitaniae, 0.063 µg/mL (≈ 0.18 µM); in the assay on Candida tropicalis it was 0.25 µg/mL (≈ 0.716 µM); against Candida parapsilosis, 0.25 µg/mL (≈ 0.716 µM). Also, the MIC80 against Aspergillus fumigatus worked out at 0.25 µg/mL (≈ 0.716 µM); against Aspergillus flavus it was 0.5 µg/mL (≈ 1.43 µM); in the assay with Aspergillus terreus, 1 µg/mL (≈ 2.86 µM); in the assay with Aspergillus niger, 1 µg/mL (≈ 2.86 µM); in the assay on Cryptococcus neoformans, 0.125 µg/mL (≈ 0.358 µM).
